Source: ChEMBL document CHEMBL5532666 (J Med Chem, 2024)
The source made the active and inactive calls. The calls are words filed in the database; no cut-off is given here.

What was measured:
[1] = target: Dual specificity protein kinase CLK1 (Homo sapiens) (UniProt P49759); test: Binding affinity to CLK1 (unknown origin) assessed as thermal stabilization by measuring change in melting temperature by DSF analysis
[2] = target: Glycogen synthase kinase-3 beta (Homo sapiens) (UniProt P49841); test: Binding affinity to GSK3B (unknown origin) assessed as thermal stabilization by measuring change in melting temperature by DSF analysis
[3] = target: T1, Serine/threonine-protein kinase RIO1 (Homo sapiens) (UniProt Q9BRS2); test: Binding affinity to RIOK1 (unknown origin) assessed as thermal stabilization by measuring change in melting temperature by DSF analysis
T1 sequence (whole entry): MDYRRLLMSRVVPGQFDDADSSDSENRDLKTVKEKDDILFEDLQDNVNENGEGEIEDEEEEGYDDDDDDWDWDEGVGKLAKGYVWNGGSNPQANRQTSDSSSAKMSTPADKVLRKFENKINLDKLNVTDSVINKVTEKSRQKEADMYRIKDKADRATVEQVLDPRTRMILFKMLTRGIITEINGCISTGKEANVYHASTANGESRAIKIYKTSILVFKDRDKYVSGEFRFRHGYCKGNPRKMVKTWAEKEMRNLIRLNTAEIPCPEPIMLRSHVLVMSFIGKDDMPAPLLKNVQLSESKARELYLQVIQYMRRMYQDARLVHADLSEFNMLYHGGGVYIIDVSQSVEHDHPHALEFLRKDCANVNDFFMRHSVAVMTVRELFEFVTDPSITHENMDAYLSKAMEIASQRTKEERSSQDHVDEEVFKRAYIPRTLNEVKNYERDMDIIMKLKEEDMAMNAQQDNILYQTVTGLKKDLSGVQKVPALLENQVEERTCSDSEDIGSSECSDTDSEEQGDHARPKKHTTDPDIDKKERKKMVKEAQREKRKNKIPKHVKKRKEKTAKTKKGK

[4] = target: T2, Serine/threonine-protein kinase 26 (Homo sapiens, UniProt Q9P289); test: Binding affinity to N-terminal 6His-tagged TEV fused MST4 (unknown origin) expressed in Escherichia coli BL21 (DE3) cells assessed as dissociation constant by ITC analysis
Target sequence in this assay (Q9P289 whole entry, the tested form may be a part): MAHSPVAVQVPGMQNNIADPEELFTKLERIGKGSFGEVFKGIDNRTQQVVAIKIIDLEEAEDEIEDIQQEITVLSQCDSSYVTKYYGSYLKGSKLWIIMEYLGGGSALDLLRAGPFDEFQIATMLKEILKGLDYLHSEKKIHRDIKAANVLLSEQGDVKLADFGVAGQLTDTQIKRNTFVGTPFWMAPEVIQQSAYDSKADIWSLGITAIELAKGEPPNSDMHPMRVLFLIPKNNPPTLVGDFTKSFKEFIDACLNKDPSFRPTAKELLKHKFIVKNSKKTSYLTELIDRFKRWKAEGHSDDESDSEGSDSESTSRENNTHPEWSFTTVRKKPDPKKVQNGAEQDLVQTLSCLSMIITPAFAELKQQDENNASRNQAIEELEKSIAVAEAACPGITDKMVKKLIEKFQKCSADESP

[5] = target: T3, Serine/threonine-protein kinase 24 (Homo sapiens, UniProt Q9Y6E0); test: Binding affinity to C-terminal full length human MST3 expressed in intact HEK293T cells incubated for 2 hrs by NanoBRET assay; format: cell-based
Target sequence in this assay (Q9Y6E0 whole entry): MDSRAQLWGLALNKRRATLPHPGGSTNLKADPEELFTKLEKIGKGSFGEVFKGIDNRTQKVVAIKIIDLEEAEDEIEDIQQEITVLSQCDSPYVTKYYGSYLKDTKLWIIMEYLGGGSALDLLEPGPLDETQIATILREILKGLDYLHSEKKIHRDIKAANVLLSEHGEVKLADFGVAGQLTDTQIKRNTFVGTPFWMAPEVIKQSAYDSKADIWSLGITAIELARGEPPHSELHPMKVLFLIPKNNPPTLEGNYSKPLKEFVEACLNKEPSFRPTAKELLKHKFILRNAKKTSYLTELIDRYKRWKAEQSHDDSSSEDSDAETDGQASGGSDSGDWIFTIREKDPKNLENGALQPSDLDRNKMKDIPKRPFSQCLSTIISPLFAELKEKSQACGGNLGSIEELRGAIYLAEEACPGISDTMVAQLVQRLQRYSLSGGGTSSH

[6] = target: T2, Serine/threonine-protein kinase 26; test: Binding affinity to C-terminal full length human MST4 expressed in intact HEK293T cells incubated for 2 hrs by NanoBRET assay; format: cell-based
Target sequence in this assay (Q9P289 whole entry, the tested form may be a part): as the sequence (Q9P289 whole entry, the tested form may be a part) above

[7] = target: T3, Serine/threonine-protein kinase 24; test: Binding affinity to C-terminal full length human MST3 expressed in permeabilized HEK293T cells incubated for 2 hrs by NanoBRET assay; format: cell-based
Target sequence in this assay (Q9Y6E0 whole entry): as the sequence (Q9Y6E0 whole entry) above

[8] = target: T2, Serine/threonine-protein kinase 26; test: Binding affinity to N-terminal 6His-tagged TEV fused MST4 (unknown origin) expressed in Escherichia coli BL21 (DE3) cells assessed as change in binding enthalpy by ITC analysis
Target sequence in this assay (Q9P289 2-416 limits assumed): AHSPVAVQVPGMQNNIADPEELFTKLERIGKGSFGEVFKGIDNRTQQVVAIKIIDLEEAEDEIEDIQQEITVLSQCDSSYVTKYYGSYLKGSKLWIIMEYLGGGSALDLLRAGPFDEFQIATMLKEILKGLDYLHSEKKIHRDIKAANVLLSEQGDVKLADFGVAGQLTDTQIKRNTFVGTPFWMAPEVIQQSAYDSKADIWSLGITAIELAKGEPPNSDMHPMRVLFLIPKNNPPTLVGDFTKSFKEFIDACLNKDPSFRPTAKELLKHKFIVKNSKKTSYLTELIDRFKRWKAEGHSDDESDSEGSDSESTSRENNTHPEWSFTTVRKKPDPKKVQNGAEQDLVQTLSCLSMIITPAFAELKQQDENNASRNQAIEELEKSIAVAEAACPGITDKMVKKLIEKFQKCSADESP

[9] = target: T2, Serine/threonine-protein kinase 26; test: Binding affinity to N-terminal 6His-tagged TEV fused MST4 (unknown origin) expressed in Escherichia coli BL21 (DE3) cells assessed as offset in binding entropy change by ITC analysis
Target sequence in this assay (Q9P289 2-416 limits assumed): as above

[10] = target: T2, Serine/threonine-protein kinase 26; test: Inhibition of wildtype MST4 (unknown origin) assessed as residual activity at 1 uM relative to control
Target sequence in this assay (Q9P289 2-416 limits assumed): as above

[11] = target: T4, LIM domain kinase 2 (Homo sapiens, UniProt P53671); test: Inhibition of wildtype LIMK2 (unknown origin) assessed as residual activity at 1 uM relative to control
Target sequence in this assay (P53671 whole entry, looked up, the tested form may be a part): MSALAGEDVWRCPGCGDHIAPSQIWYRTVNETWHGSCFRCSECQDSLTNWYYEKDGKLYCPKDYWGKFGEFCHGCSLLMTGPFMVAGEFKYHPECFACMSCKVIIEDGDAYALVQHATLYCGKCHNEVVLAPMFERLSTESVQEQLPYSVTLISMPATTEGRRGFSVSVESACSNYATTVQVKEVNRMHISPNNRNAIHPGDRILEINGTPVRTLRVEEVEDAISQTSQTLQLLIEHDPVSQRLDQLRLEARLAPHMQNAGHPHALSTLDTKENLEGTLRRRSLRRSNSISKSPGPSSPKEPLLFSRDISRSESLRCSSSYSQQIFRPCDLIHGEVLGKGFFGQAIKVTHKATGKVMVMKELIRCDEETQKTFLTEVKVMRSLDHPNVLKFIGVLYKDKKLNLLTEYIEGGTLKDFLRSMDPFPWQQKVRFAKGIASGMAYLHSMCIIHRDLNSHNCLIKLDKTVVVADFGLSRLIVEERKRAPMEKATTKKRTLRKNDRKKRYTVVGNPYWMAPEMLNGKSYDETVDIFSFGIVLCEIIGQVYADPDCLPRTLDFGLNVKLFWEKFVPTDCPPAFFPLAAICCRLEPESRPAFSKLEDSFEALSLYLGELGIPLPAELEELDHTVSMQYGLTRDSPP

[12] = target: LIM domain kinase 1 (Homo sapiens, UniProt P53667); test: Binding affinity to LIMK1 (unknown origin) expressed in permeabilized HEK293T cells incubated for 2 hrs by NanoBRET assay; format: cell-based
[13] = target: T4, LIM domain kinase 2; test: Binding affinity to LIMK2 (unknown origin) expressed in intact HEK293T cells incubated for 2 hrs by NanoBRET assay; format: cell-based
Target sequence in this assay (P53671 whole entry, the tested form may be a part): as the sequence (P53671 whole entry, looked up, the tested form may be a part) above

[14] = target: T4, LIM domain kinase 2; test: Binding affinity to LIMK2 (unknown origin) expressed in permeabilized HEK293T cells incubated for 2 hrs by NanoBRET assay; format: cell-based
Target sequence in this assay (P53671 whole entry, the tested form may be a part): as the sequence (P53671 whole entry, looked up, the tested form may be a part) above

[15] = system: HCT-116; test: Cell cycle arrest in human HCT-116 cells expressing […] assessed as S phase cells at 10 uM incubated for 72 hrs by Hoechst33342 staining based analysis relative to control; format: functional
[16] = system: HCT-116; test: Cell cycle arrest in human HCT-116 cells expressing […] assessed as G1 phase cells at 10 uM incubated for 72 hrs by Hoechst33342 staining based analysis (reference value: 52%); format: functional
[17] = Metabolic stability in Sprague-Dawley rat liver microsomes assessed as parent compound remaining at 10 uM preincubated with NADPH for 5 mins followed by microsomal addition and measured upto 60 mins by HPLC analysis; format: ADME, Microsome; conditions: time < 65 min, read-out: Stability
[18] = system: HCT-116; test: Cell cycle arrest in human HCT-116 cells expressing […] assessed as G2/M phase cells at 1 uM incubated for 72 hrs by Hoechst33342 staining based analysis (reference value: 38%); format: functional
[19] = system: HCT-116; test: Cell cycle arrest in human HCT-116 cells expressing […] assessed as G1 phase cells at 1 uM incubated for 72 hrs by Hoechst33342 staining based analysis (reference value: 52%); format: functional
[20] = Toxicity in human HCT-116 cells expressing FUCCI assessed as reduction in cell viability at 1 uM measured after 48 hrs by Hoechst33342 staining based analysis; conditions: hct-116, 48 h
[21] = Toxicity in human HCT-116 cells expressing FUCCI assessed as reduction in normalized cell count at 10 uM measured upto 80 hrs by Hoechst33342 staining based analysis; conditions: hct-116, 80 h
[22] = Toxicity in human HCT-116 cells expressing FUCCI assessed as normalized cell count at 10 uM measured after 72 hrs by Hoechst33342 staining based analysis relative to control; conditions: read-out: Activity
[23] = Toxicity in human HCT-116 cells expressing FUCCI assessed as cells with healthy nuclei at 1 to 10 uM measured after 24 hrs by Hoechst33342 staining based analysis relative to control; format: cell-based; conditions: hct-116, 24 h, dose 1-10 µM
[24] = target: T3, Serine/threonine-protein kinase 24; conditions: dose 10.0 µM
Target sequence in this assay (Q9Y6E0 whole entry, looked up): as the sequence (Q9Y6E0 whole entry) above
Description: Binding affinity to recombinant MST3 (unknown origin) kinase domain assessed as thermal stabilization by measuring change in melting temperature at 10 uM by DSF analysis

[25] = target: T2, Serine/threonine-protein kinase 26; conditions: dose 10.0 µM
Target sequence in this assay (Q9P289 2-416 limits assumed): as the sequence (Q9P289 2-416 limits assumed) above
Description: Binding affinity to recombinant MST4 (unknown origin) kinase domain assessed as thermal stabilization by measuring change in melting temperature at 10 uM by DSF analysis

Chain of LIM domain kinase 1 (P53667 whole entry, the tested form may be a part): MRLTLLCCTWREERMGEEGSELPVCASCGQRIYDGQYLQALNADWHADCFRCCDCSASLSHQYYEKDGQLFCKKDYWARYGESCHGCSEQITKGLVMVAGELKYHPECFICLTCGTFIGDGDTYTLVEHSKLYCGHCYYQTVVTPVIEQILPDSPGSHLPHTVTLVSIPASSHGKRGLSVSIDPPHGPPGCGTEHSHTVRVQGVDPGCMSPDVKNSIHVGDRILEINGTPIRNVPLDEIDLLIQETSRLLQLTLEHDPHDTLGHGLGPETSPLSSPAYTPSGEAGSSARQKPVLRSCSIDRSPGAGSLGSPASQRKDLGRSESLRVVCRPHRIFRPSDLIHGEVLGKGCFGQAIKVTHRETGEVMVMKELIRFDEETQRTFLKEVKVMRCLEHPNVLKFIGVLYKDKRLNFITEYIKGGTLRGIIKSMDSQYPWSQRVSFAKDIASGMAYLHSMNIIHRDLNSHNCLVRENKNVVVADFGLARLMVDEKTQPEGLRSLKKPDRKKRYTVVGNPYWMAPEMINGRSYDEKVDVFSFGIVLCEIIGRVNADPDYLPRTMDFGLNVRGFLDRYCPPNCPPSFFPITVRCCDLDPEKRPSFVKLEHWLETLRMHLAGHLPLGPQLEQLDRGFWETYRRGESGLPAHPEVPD
Chain of Glycogen synthase kinase-3 beta (Homo sapiens) (P49841 whole entry, looked up): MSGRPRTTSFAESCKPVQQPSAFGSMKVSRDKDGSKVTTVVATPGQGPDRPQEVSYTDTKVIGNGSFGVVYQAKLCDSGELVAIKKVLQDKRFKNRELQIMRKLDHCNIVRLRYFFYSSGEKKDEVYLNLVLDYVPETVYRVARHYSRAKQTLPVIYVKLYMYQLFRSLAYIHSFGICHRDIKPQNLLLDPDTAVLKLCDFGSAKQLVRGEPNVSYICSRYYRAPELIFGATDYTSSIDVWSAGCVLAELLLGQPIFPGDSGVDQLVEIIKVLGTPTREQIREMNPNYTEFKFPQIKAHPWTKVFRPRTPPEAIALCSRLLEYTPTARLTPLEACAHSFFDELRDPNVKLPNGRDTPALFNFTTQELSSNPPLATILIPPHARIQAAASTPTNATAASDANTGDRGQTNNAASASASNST
Chain of Dual specificity protein kinase CLK1 (Homo sapiens) (P49759 whole entry, looked up): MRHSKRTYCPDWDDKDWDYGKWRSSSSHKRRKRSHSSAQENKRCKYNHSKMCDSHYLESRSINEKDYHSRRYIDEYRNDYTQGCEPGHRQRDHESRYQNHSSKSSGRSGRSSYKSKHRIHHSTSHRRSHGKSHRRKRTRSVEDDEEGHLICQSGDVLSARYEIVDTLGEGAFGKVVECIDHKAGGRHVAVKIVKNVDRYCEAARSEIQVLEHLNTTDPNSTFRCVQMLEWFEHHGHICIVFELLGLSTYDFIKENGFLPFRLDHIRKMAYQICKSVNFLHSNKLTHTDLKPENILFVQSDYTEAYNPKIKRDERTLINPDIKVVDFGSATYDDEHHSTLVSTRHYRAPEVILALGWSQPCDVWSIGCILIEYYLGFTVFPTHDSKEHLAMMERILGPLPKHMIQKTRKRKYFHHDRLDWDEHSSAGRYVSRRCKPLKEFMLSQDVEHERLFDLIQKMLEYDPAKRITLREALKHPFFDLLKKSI

- ΔTm [1]: 5.1 °C
- ΔTm [2]: 5.1 °C
- ΔTm [3]: 5.1 °C
- Kd [4]: 0.115 µM
- EC50 [5]: 0.11 µM
- EC50 [6]: 1.43 µM
- EC50 [7]: 0.08 µM
- Activity [8]: Active
- Activity [9]: Active
- Activity [10]: 18%
- Activity [11]: 38.2%
- EC50 [12]: 2.48 µM
- EC50 [13]: 1.78 µM
- EC50 [14]: 1 µM
- remaining at 1 h, 10 µM [17]: 88%
- ΔTm [24]: 7.5 °C
- ΔTm [25]: 7.4 °C
Compound: O=C1NCCCCCNc2nc(c3ccccc3n2)Nc2cc1[nH]n2
- Activity [15]: 27%
- Activity [16]: 40%
- Activity [18]: 33%
- Activity [19]: 57%
- Activity [20]: Non-Toxic
- Activity [21]: Toxic
- viability at 72 h, 10 µM [22]: < 30%
- Activity [23]: 80%
